{"source": "ChEMBL document CHEMBL5465560", "about": "“Selectivity Literature for EUbOPEN Chemogenomic Library” (2024)", "key": {"[1]": {"target": "T1, Histone-arginine methyltransferase CARM1 (Homo sapiens) (UniProt Q86X55)", "T1 sequence (whole entry)": "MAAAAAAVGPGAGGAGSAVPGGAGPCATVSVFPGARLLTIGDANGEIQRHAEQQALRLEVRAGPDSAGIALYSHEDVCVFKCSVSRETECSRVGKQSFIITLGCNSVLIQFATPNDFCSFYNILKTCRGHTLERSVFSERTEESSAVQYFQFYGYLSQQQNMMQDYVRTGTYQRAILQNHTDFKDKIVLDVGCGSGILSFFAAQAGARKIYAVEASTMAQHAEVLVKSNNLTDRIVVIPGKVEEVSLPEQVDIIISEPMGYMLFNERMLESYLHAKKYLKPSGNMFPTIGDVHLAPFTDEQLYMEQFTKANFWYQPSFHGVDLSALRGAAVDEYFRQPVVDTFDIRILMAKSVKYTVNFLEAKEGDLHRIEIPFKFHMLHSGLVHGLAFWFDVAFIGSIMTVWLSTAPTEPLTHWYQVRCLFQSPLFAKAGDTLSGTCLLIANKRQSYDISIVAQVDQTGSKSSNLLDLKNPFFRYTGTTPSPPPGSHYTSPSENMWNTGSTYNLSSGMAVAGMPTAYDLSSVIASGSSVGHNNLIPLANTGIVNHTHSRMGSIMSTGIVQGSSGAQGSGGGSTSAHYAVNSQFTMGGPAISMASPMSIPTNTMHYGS", "conditions": "KMS-28BM, at 3 µM"}, "[2]": {"target": "Serine/threonine-protein kinase N1 (Homo sapiens, UniProt Q16512)", "sequence (Q16512 whole entry)": "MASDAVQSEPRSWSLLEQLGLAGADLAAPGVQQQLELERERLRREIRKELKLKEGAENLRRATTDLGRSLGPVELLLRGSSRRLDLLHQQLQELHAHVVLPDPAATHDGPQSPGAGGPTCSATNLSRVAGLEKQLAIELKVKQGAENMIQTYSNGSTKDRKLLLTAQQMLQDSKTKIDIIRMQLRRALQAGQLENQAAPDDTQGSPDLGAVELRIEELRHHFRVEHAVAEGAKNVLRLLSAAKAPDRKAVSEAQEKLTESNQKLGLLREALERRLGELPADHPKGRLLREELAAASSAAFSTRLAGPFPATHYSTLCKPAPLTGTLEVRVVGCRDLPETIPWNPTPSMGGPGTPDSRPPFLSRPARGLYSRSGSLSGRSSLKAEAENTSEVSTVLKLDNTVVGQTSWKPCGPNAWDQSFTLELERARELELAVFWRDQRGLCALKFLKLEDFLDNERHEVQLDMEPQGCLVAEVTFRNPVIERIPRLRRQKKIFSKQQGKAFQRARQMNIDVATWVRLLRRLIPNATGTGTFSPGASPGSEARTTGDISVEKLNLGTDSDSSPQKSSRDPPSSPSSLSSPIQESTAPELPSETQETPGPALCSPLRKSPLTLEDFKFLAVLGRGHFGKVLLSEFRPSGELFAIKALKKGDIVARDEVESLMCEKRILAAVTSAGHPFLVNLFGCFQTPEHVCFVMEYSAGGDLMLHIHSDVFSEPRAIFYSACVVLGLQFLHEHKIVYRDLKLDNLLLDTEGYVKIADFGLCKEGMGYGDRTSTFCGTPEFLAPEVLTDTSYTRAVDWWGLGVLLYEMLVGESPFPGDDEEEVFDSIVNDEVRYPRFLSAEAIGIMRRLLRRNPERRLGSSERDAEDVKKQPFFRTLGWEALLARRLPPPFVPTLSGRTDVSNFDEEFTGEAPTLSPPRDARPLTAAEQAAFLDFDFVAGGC", "experiment": "Selectivity interaction (Kinase panel (33PanQinase(R) Activity Assay)) EUB0000877a PKN1"}, "[3]": {"target": "T2, Cytoplasmic tyrosine-protein kinase BMX (Homo sapiens) (UniProt P51813)", "T2 sequence (whole entry)": "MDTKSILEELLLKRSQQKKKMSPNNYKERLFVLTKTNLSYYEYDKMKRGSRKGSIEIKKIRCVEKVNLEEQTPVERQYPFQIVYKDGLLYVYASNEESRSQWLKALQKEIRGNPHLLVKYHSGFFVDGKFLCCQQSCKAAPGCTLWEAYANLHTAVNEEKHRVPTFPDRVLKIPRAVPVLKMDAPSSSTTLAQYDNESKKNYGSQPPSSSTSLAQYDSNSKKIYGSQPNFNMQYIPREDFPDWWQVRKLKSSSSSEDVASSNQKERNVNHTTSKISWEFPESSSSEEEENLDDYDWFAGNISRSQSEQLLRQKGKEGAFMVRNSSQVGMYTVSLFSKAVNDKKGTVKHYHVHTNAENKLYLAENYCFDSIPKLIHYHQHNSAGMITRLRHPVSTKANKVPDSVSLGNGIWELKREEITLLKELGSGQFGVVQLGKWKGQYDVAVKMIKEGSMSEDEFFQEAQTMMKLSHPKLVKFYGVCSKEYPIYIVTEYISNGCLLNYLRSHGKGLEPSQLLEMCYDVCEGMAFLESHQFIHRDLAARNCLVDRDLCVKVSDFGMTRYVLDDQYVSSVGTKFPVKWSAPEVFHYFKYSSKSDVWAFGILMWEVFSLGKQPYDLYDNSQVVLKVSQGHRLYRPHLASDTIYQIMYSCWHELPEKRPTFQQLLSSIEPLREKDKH", "experiment": "Selectivity interaction (Kinase panel (DSF assay)) EUB0001559a BMX"}, "[4]": {"target": "Tyrosine-protein kinase JAK1 (Homo sapiens, UniProt P23458)", "experiment": "Selectivity interaction (ActivX KiNativ screen (kinase selectivity in THP-1 cell lysates)) EUB0000639a JAK1", "assay_type": "subcellular", "conditions": "lysate, at 0.01 µM"}, "[5]": {"target": "Vascular endothelial growth factor receptor 3 (Homo sapiens, UniProt P35916)", "sequence (P35916 whole entry)": "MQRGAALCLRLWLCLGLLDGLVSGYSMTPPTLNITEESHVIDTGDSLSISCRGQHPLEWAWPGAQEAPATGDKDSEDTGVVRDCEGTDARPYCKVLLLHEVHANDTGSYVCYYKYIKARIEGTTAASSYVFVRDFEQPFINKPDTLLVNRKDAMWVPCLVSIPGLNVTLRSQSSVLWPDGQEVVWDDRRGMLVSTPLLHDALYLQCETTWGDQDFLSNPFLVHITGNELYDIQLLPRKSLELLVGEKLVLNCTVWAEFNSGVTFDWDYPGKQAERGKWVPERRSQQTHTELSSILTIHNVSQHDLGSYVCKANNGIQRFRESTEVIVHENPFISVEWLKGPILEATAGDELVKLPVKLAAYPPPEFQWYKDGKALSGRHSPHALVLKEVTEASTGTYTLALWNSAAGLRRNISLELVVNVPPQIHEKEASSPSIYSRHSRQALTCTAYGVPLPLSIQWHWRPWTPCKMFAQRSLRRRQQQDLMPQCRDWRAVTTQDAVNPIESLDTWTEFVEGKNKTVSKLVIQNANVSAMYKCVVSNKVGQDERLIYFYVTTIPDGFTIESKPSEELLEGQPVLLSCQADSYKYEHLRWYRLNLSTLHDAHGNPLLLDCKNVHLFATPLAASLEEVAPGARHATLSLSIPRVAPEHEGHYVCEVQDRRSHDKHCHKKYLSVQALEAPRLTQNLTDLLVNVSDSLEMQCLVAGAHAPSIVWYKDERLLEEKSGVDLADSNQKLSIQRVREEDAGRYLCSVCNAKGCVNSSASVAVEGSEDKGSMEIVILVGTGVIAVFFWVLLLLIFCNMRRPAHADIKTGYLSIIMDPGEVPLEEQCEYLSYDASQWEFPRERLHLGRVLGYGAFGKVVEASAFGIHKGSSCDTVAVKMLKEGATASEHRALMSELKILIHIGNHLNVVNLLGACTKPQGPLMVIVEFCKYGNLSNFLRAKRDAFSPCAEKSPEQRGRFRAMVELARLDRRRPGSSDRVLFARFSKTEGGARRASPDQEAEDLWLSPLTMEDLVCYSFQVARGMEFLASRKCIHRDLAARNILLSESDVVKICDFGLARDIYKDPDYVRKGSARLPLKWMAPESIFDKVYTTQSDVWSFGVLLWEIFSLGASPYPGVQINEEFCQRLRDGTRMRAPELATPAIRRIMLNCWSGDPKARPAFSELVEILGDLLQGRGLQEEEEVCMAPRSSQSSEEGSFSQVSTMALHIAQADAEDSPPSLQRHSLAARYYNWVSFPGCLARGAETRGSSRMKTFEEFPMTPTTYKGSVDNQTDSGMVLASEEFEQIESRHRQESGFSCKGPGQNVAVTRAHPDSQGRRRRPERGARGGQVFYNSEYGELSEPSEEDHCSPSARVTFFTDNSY", "experiment": "Selectivity interaction (Kinase panel (Invitrogen)) EUB0000639a FLT4", "conditions": "at 200 nM"}, "[6]": {"target": "Tyrosine-protein kinase HCK (Homo sapiens) (UniProt P08631)", "sequence (P08631 2-526 limits assumed)": "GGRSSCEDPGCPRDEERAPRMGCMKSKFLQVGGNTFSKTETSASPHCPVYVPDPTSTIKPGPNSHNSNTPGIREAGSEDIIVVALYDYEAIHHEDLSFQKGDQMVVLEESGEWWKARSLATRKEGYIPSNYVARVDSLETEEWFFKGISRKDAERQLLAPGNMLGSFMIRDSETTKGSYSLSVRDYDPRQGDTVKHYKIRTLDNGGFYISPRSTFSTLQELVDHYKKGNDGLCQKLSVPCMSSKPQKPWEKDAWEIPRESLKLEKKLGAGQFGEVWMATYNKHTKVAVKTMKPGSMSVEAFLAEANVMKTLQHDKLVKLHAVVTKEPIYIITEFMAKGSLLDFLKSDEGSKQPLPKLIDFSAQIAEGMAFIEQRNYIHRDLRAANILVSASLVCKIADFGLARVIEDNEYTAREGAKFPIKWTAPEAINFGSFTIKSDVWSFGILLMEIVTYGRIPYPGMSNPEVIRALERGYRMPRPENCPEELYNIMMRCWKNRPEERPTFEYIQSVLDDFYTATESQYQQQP", "experiment": "Selectivity interaction (KinomeScan (DiscoverX)) EUB0000045b HCK"}, "[7]": {"target": "Mitogen-activated protein kinase kinase kinase 9 (Homo sapiens) (UniProt P80192)", "sequence (P80192 whole entry, looked up)": "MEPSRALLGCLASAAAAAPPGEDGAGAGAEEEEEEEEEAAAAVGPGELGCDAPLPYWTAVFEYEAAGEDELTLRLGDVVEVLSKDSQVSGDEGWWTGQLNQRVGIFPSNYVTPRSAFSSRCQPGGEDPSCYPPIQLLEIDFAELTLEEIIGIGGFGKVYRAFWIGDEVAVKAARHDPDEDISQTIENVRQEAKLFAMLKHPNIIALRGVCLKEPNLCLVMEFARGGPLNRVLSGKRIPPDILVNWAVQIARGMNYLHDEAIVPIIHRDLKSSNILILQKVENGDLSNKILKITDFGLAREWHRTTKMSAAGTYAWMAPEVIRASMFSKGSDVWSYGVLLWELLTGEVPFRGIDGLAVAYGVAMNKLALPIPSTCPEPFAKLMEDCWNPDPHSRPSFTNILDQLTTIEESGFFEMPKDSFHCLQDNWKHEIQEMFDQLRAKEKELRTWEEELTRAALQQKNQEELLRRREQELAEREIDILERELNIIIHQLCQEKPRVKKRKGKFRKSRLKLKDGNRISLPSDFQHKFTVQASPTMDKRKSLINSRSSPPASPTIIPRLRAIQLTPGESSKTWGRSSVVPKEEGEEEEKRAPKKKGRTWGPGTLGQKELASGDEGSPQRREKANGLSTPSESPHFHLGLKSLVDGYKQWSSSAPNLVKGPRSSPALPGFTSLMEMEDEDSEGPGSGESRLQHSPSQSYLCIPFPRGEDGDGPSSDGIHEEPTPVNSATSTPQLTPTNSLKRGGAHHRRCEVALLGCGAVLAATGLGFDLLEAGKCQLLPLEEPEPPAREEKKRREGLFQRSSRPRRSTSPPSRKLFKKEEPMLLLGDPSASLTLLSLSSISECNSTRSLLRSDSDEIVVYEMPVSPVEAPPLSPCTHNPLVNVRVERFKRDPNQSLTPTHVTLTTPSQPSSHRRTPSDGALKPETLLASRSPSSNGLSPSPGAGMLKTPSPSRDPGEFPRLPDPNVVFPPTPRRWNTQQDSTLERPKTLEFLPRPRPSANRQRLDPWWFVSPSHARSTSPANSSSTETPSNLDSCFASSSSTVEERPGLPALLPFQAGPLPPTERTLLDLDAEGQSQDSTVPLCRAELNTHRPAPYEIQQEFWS", "conditions": "at 10 µM"}, "[8]": {"target": "Dual specificity protein kinase CLK1 (Homo sapiens, UniProt P49759)", "sequence (P49759 whole entry, looked up)": "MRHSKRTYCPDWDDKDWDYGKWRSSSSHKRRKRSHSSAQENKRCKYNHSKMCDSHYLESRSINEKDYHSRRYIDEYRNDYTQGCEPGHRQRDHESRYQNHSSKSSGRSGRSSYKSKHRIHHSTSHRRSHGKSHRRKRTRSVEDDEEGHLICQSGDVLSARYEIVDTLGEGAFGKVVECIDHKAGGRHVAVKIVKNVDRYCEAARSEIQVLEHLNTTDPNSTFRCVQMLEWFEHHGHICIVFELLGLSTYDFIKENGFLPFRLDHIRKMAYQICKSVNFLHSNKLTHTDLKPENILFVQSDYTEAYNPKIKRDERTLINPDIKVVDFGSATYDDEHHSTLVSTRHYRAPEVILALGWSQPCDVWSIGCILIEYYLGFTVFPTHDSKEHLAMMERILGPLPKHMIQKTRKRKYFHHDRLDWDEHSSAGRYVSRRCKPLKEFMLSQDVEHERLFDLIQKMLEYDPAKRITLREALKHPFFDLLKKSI", "experiment": "Selectivity interaction (ProQinase) EUB0000171b CLK1"}}, "data": [{"smiles": "CNCCN1CCC(c2cc(CN(C)C(=O)c3cccc(Oc4ccccc4)c3)ccn2)CC1", "values": [{"measurement": "% of growth rate", "setting": "[1]", "value": -24.1, "unit": "%"}]}, {"smiles": "CCC(=O)N1CC[C@H](Nc2ncnc3c2CN(c2cnc(OC)c(C(F)(F)F)c2)CC3)C1", "note": "[LENIOLISIB]", "values": [{"measurement": "IC50", "setting": "[2]", "value": "> 10", "unit": "µM"}]}, {"smiles": "CN(C(=O)c1cnn2cccnc12)c1cc2c(cc1N1CCOCC1)C(=O)N(C[C@@H](F)C(C)(C)O)C2", "values": [{"measurement": "dTM", "setting": "[3]", "value": 0.1, "unit": "K"}]}, {"smiles": "CC[C@@H]1[C@H](F)C(=O)N[C@@H]1COc1nccc2cc(C(N)=O)c(OC)cc12", "note": "[ZIMLOVISERTIB]", "values": [{"measurement": "% of inhibition", "setting": "[4]", "value": -1.9, "unit": "%"}, {"measurement": "% of inhibition", "setting": "[5]", "value": 0.591, "unit": "%"}]}, {"smiles": "C=CC(=O)Nc1cc(-n2c(=O)ccc3cnc4ccc(-c5ccc(NS(C)(=O)=O)cc5)cc4c32)ccc1C", "values": [{"measurement": "% of control", "setting": "[6]; at 1 µM", "value": 97, "unit": "%"}, {"measurement": "% of control", "setting": "[6]; at 10 µM", "value": 100, "unit": "%"}]}, {"smiles": "Cc1cc([C@@H](C)Nc2ccccc2C(=O)O)c2nc(N3CCOCC3)cc(=O)n2c1", "note": "[AZD-6482]", "values": [{"measurement": "% of control", "setting": "[7]", "value": 91, "unit": "%"}]}, {"smiles": "C=CC(=O)Nc1cccc(C(=O)Nc2ccc(Nc3cc(-c4[nH]c(SC)nc4C)ccn3)cc2)c1", "values": [{"measurement": "% of control", "setting": "[8]; at 1 µM", "value": 67, "unit": "%"}, {"measurement": "% of control", "setting": "[8]; at 5 µM", "value": 37, "unit": "%"}]}]}
